Results published in paper PMC9697031, “Identification of Novel Diarylpyrimidines as Potent HIV-1 Non-Nucleoside Reverse Transcriptase Inhibitors by Exploring the Primer Grip Region” (Pharmaceuticals, 2022).
Where two headings read alike, the source gives them in different places.

Columns and labels:
WT HIV-1 strain (IIIB) [1] = experiment: Anti-HIV-1 (IIIB, wild-type) activity in MT-4 cells, MTT method; assay type: cell-based; conditions: for SI (IIIB): selectivity index, CC50/EC50 (IIIB)
Method: (§1) Stock solutions (10 × final concentration) of test compounds were added in 25 μL volumes to two series of triplicate wells to allow simultaneous evaluation of their effects on mock- and HIV-infected cells at the beginning of each experiment.

in vitro = conditions: human
Method: as §1

[2] = tested on: HIV-1 L100I mutant strain; experiment: Anti-HIV-1 mutant strain L100I in MT-4 cells, MTT method; assay type: cell-based; conditions: Human immunodeficiency virus 1, MT4, read-out: EC50 L100I
Method: (§2) Evaluation of the anti-HIV activity and cytotoxicity of the target compounds was performed by utilizing the MTT method in MT-4 cells described previously [37]. Stock solutions (10 × final concentration) of test compounds were added in 25 μL volumes to two series of triplicate wells to allow simultaneous evaluation of their effects on mock- and HIV-infected cells at the beginning of each experiment. Serial five-fold dilutions of test compounds were prepared directly in flat-bottomed 96-well microtiter trays by adding 100 μL medium to the 25 μL stock solution and transferring 25 μL of this solution to another well that contained 100 μL medium using a Biomek 3000 robot (Beckman Instruments, Fullerton, CA). Each sample includes untreated control HIV- and mock-infected cell samples. WT HIV-1 strain (IIIB), HIV-1 drug-resistant strains including L100I, K103N, Y181C, Y188L, E138K, K103N/Y181C, F227L/V106A or HIV-2 strain (ROD) stock (50 μL) at 100–300 CCID50 (50% cell culture infectious dose) or culture medium was added to either the infected or mock-infected wells of the microtiter tray. Mock-infected cells were used to evaluate the effect of test compounds on uninfected cells to evaluate their cytotoxicity. Exponentially growing MT-4 cells were centrifuged for 5 min at 1000 rpm, and the supernatant was discarded. […] After infection five days, the viability of mock- and HIV-infected cells was examined spectrophotometrically by the MTT assay.

[3] = tested on: HIV-1 K103N mutant strain; experiment: microbe, parasite or virus in culture; assay type: cell-based; conditions: for EC50: Human immunodeficiency virus 1, MT4, read-out: EC50 K103N; for Resistance Folds K103N: RF, EC50 (K103N)/EC50 (WT)
Method: as §1

[4] = tested on: HIV-1 Y181C mutant strain; experiment: Anti-HIV-1 mutant strain Y181C in MT-4 cells, MTT method; assay type: cell-based; conditions: Human immunodeficiency virus 1, MT4, read-out: EC50 Y181C
Method: as §2

[5] = tested on: HIV-1 Y188L mutant strain; experiment: Anti-HIV-1 mutant strain Y188L in MT-4 cells, MTT method; assay type: cell-based; conditions: Human immunodeficiency virus 1, MT4, read-out: EC50 Y188L
Method: as §2

[6] = tested on: HIV-1 E138K mutant strain; experiment: Anti-HIV-1 mutant strain E138K in MT-4 cells, MTT method; assay type: cell-based; conditions: Human immunodeficiency virus 1, MT4, read-out: EC50 E138K
Method: as §2

[7] = tested on: HIV-1 F227L + V106A mutant strain; experiment: Anti-HIV-1 double mutant F227L + V106A in MT-4 cells, MTT method; assay type: cell-based; conditions: Human immunodeficiency virus 1, MT4, read-out: EC50 F227L + V106A
Method: as §2

[8] = tested on: HIV-1 RES056 (K103N/Y181C) mutant strain; experiment: Anti-HIV-1 double mutant RES056 in MT-4 cells, MTT method; assay type: cell-based; conditions: Human immunodeficiency virus 1, MT4, read-out: EC50 RES056
Method: as §2

HIV-1 WT RT [9] = target: T1, HIV-1 WT RT (Human immunodeficiency virus type 1 group M subtype B, UniProt P04585); design: method as in PMID 35061384; conditions: incorporation of biotin-dUTP; used for comparison ref 5; cited from earlier work
T1 construct: The RT is a heterodimer consisting of two subunits, p66 (560 residues) and p51 (440 residues); purchased Roche

WT HIV-1 strain (IIIB) [10] = tested on: WT HIV-1 strain (IIIB); design: method as in PMID 35061384; conditions: MT-4 cells, WT HIV-1 IIIB; used for comparison ref 5; cited from earlier work
HIV-2 strain (ROD) = experiment: Anti-HIV-2 (ROD) activity in MT-4 cells, MTT method; assay type: cell-based; conditions: Human immunodeficiency virus 2, MT4, read-out: EC50 ROD
Method: as §1

HIV-1 WT RT [11] = target: T1, HIV-1 WT RT; experiment: HIV-1 RT inhibition assay (Roche kit, ELISA); assay type: biochemical
Method: An HIV-1 reverse transcriptase (RT) assay kit produced by Roche was used for the RT inhibition assay. All the reagents for performing the RT reaction came from the kit, and the ELSIA procedures for RT inhibition assay were conducted following the description in the kit protocol [38]. […] Then used, a washing buffer was used to remove the unbound dNTPs, and an anti-DIG-POD working solution was added. […] The unbound anti-DIG-PODs were removed, and the peroxidesubstrate (ABST) solution was added to the MTPs. A colored reaction proceeds during the cleavage of the substrate catalyzed by POD. […] The percentage inhibitory activity of RT inhibitors was calculated by the formula given below: % Inhibition = [O.D. value with RT but without inhibitors − O.D. value with RT and inhibitors]/[O.D. value with RT and inhibitors − O.D. value without RT and inhibitors].

[12] = Human immunodeficiency virus 1, IIIB, MT4, read-out: EC50 IIIB, MT-4 cells, WT HIV-1 IIIB, MTT

| Compound | EC50 (WT HIV-1 strain (IIIB) [1]; [12]) [nM] | EC50 (WT HIV-1 strain (IIIB) [1]; read-out: EC50 IIIB, MT-4 cells, WT HIV-1 IIIB, MTT) [nM] | SI (IIIB) (WT HIV-1 strain (IIIB) [1]) | CC50 at 5 days (in vitro) [nM] | EC50 [2] [nM] | EC50 [3] [nM] | EC50 [4] [nM] | EC50 [5] [nM] | EC50 [6] [nM] | EC50 [7] [nM] | EC50 [8] [nM] | IC50 (HIV-1 WT RT [9]) [nM] | EC50 (WT HIV-1 strain (IIIB) [10]) [nM] | EC50 (HIV-2 strain (ROD)) [nM] | Resistance Folds K103N [3] | IC50 (HIV-1 WT RT [11]) [nM] | melting point [°C] |
| --- | --- | --- | --- | --- | --- | --- | --- | --- | --- | --- | --- | --- | --- | --- | --- | --- | --- |
| Cc1cc(C#N)cc(C)c1Oc1nc(Nc2ccc(C#N)cc2)nc(N)c1Br [ETR, etravirine, reference compound] | 3 | 2.9 ± 0.4 | >1578.9 | > 4590 | 5.9 ± 1 | 3 ± 0.3 | 11.1 ± 1.3 | 18.1 ± 3.2 | 6.3 ± 1.2 | 20.4 ± 7.8 | 29.5 ± 4.8 | 11 |  |  |  |  |  |
| Cc1cc(/C=C/C#N)cc(C)c1Nc1ccnc(Nc2ccc(C#N)cc2)n1 [RPV, rilpivirine] |  |  |  |  |  |  |  |  |  |  |  |  | 1 ± 0.27 |  |  |  |  |
| Cc1cc(COc2cccnc2C#N)cc(C)c1Oc1ccnc(Nc2ccc(C#N)cc2)n1 [TF12, 3-((4-((2-((4-cyanophenyl)amino)pyrimidin-4-yl)oxy)-3,5-dimethylbenzyl)oxy) picolinonitrile] | 7.8 ± 0.8 |  | 316.9 | 2460 ± 198 | 246 ± 54.6 | 34.7 ± 8.8 | 384 ± 75.5 | ≥ 1560 | 46.2 ± 7.1 | 742 ± 145 | > 2460 |  |  | > 2460 | 4.49 | 38 ± 4 | 245 to 248 |
| Cc1cc(COc2cncc(C#N)c2)cc(C)c1Oc1ccnc(Nc2ccc(C#N)cc2)n1 [TF13, 5-((4-((2-((4-cyanophenyl)amino)pyrimidin-4-yl)oxy)-3,5-dimethylbenzyl)oxy) nicotinonitrile] | 19.4 ± 3.4 |  | 246.4 | 4770 ± 1560 | 125 ± 5.9 | 28 ± 2.5 | 265 ± 24.6 | 1050 ± 66.8 | 57.7 ± 11.6 | 1650 ± 19.9 | 1180 ± 68.2 |  |  | > 4770 | 1.47 | 59 ± 1 | 195 to 198 |
| Cc1cc(COc2ccc(F)nc2)cc(C)c1Oc1ccnc(Nc2ccc(C#N)cc2)n1 [TF14, 4-((4-(4-(((6-fluoropyridin-3-yl)oxy)methyl)-2,6-dimethylphenoxy)pyrimidin-2-yl)amino)benzonitrile] | 23.6 ± 3.8 |  | 1034.6 | 24400 | 185 ± 11.6 | 36.7 ± 3.7 | 286 ± 52.1 | 774 ± 39.2 | 67.4 ± 8.1 | 999 ± 126 | 1190 ± 182 |  |  | > 24400 | 1.54 | 41 ± 3 | 185 to 188 |
| Cc1cc(COc2ccc(NC(=O)OC(C)(C)C)cc2)cc(C)c1Oc1ccnc(Nc2ccc(C#N)cc2)n1 [TF16, (4-((4-((2-((4-cyanophenyl)amino)pyrimidin-4-yl)oxy)-3,5-dimethylbenzyl)oxy)phenyl)carbamic acid tert-butyl ester] | 45.3 ± 14.1 |  | 136.7 | 6200 ± 220 | 715 ± 184 | 132 ± 28.4 | 1270 ± 154 | > 6200 | 246 ± 30.4 | ≥ 1620 | > 6200 |  |  | > 6200 | 2.93 | 160 ± 1 | 184 to 187 |
